Measurements: patent US8697692B2, “Pyrrolo [3,2-c] pyridine-4-one 2-indolinone protein kinase inhibitors” (Shanghai Hengrui Pharmaceutical Co., Ltd., priority 2006, dated 2014)

Key:
EGFR kinase = target: T1, EGFR kinase (Homo sapiens, UniProt P00533); assay: EGFR Kinase Assay; type: biochemical; settings: 20 μM ATP, 25° C. 45 minutes
T1 construct: purchased Cell signaling technology #7908
Procedure: EGFR kinase activity in vitro was measured as described below:
a. Wash Buffer (PBS-T Buffer): 1×PBS (137 mM NaCl, 2.7 mM KCl, 4.3 mM Na2HPO4, 1.4 mM KH2PO4, adjust the pH to 7.2) and 0.05% Tween-20.
(§1) b. 1% Bovine Serum Albumin (BSA, Calbiochem #136593) in PBS-T.
c. Stop Buffer: 50 mM EDTA, pH 8.0
d. DELFIA® Europium-labeled Anti-mouse IgG (PerkinElmer Life Sciences #AD0124)
e. DELFIA® Enhancement Solution (PerkinElmer Life Sciences #1244-105)
f. DELFIA® Streptavidin coated, 96-well, yellow plate (PerkinElmer Life Sciences #AAAND-0005)
g. EGFR kinase (supplied in 50 mM Tris-HCl (pH 8.0), 100 mM NaCl, 5 mM DTT, 15 mM reduced glutathione and 20% glycerol. Cell signaling technology #7908).
(§2) h. 10 mM ATP solution (Cell signaling technology #9804).
i. PTP1B (Tyr66) Biotinylated Peptide (Cell signaling technology #1325).
(§3) j. Phospho-Tyrosine Mouse mAb (P-Tyr-100) (Cell signaling technology #9411).
(§4) k. HTScan™ Tyrosine Kinase Buffer (4×)
(§5) (Cell signaling technology #9805).
(§6) l. 1.25 M DTT (1000×) (Cell signaling technology).
(§7) The following protocol was used:
1. Dilute test compound with DMSO to the desired final assay concentration.
2. Dilute 6 μM substrate peptide (Tyr66) 1:1 with dH2O, add 15 μl to every assay.
3. Immediately transfer EGFR enzyme from −80° C. to ice. Allow enzyme to thaw on ice.
4. Take 3 μg EGFR enzyme to the enzyme tube.
(§8) 5. Add 10 μl of DTT (1.25 M) to 2.5 ml of 4×HTScan™ Tyrosine Kinase Buffer (240 mM HEPES pH 7.5, 20 mM MgCl2, 20 mM MnCl2, 12 μM Na3VO4) to make DTT/Kinase buffer.
(§9) 6. Transfer 0.75 ml of DTT/Kinase buffer to each enzyme tube to make 4× reaction cocktail. Add 7.5 μl 4× reaction cocktail to every assay.
7. Add 4 μl ATP (10 mM) to 496 μl dH2O, take 7.5 μl for every assay.
Final Assay Conditions for a 30 μl Reaction
(§10) Incubate reaction tube at 25° C. for 45 minutes. 9. Add 30 μl/assay stop buffer (50 mM EDTA, pH 8.0) to stop the reaction. 10. Transfer 25 μl of each reaction and 75 μl dH2O/well to a 96-well streptavidin coated plate and incubate, with shaking at room temperature for 60 minutes. 11. Wash three times with 200 μl/well PBS-T buffer. Pat plate on paper towel to remove excess liquid. 12. Dilute primary antibody, Phospho-Tyrosine mAb (P-Tyr-100), 1:1000 in PBS-T buffer with 1% BSA. Add 100 μl diluted primary antibody to each well. 13. Incubate, with shaking at room temperature for 60 minutes. 14. Wash as described above in step 11. 15. Dilute Europium labeled anti-mouse IgG 1:500 in PBS-T buffer with 1% BSA. Add 100 μl diluted antibody to each well. 16. Incubate, with shaking at room temperature for 30 minutes. 17. Wash five times with 200 μl/well PBS-T buffer. Pat plate on paper towel to remove excess liquid. 18. Add 100 μl/well DELFIA® Enhancement Solution. 19. Incubate, with shaking at room temperature for 5 minutes. 20. Detect 615 nm fluorescence emission with appropriate Time-Resolved Plate Reader.
(§11) Calculate the inhibition rate: IR (%)=100−100*(X−B)/(N−B)
(§12) X=the fluorescence value of the well contained test compound
(§13) The IC50 value can be derived from the IRs of compounds at different concentration gradients.

HER-2/ErbB2 kinase = target: T2, HER-2/ErbB2 kinase (Homo sapiens, UniProt P04626); assay: HER-2 Kinase Assay (ELISA); type: biochemical; settings: 20 μM ATP, 25° C. 60 minutes
T2 construct: purchased Invitrogen corporation #PV3366
T2 sequence (P04626 23-1255): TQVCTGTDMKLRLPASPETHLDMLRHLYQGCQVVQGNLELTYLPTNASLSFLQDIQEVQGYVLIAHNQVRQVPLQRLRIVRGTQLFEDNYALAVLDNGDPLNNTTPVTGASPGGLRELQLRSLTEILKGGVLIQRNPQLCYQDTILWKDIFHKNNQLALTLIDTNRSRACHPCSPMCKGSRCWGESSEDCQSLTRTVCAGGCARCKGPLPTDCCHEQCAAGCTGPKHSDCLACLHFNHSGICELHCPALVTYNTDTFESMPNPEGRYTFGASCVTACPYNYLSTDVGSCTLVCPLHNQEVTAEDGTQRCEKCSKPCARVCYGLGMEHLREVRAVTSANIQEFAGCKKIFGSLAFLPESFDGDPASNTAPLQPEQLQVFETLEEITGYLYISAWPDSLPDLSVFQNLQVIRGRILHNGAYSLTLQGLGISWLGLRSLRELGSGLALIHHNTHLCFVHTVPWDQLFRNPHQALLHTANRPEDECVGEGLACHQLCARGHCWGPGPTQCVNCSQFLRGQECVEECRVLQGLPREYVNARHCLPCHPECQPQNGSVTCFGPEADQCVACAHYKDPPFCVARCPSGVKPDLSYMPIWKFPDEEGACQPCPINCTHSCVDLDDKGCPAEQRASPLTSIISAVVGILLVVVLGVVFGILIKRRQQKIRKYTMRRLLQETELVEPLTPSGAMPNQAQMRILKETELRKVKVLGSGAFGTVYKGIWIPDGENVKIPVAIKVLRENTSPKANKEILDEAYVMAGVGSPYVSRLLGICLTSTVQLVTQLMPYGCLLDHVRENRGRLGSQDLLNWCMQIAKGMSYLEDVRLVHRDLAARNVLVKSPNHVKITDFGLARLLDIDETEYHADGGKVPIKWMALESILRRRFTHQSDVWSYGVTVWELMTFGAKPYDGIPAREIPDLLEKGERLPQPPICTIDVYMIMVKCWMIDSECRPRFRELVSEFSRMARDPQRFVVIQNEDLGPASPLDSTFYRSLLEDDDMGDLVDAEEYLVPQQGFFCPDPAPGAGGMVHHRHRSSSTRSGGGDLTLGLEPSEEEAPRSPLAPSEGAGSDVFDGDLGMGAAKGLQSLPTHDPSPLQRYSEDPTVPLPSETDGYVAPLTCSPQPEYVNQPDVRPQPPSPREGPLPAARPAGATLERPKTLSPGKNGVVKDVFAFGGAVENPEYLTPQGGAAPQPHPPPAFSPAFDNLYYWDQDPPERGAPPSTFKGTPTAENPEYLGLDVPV
Procedure: An enzyme linked immunosorbent assays (ELISA) was conducted to measure the kinase activity of HER-2 in vitro.
a. Wash Buffer (PBS-T Buffer): 1×PBS (137 mM NaCl; 2.7 mM KCl, 4.3 mM Na2HPO4, 1.4 mM KH2PO4, adjust the pH to 7.2) and 0.05% Tween-20.
as §1
c. Stop Buffer: 50 mM EDTA, pH 8.0.
d. DELFIA® Europium-labeled Anti-mouse IgG (PerkinElmer Life Sciences #AD0124).
e. DELFIA® Enhancement Solution (PerkinElmer Life Sciences #1244-105).
f. DELFIA® Streptavidin coated, 96-well, yellow plate (PerkinElmer Life Sciences #AAAND-0005).
g. HER-2/ErbB2 kinase (Invitrogen corporation #PV3366).
as §2
i. FLT3 (Tyr589) Biotinylated Peptide (Cell signaling technology #1305).
as §3, §4, §5, §6, §7
1. Dilute test compound with DMSO to the desired final assay concentration. Add 1 μl test compound for every assay, to the negative control.
2. Dilute 6 μM substrate peptide (Tyr589) 1:1 with dH2O, add 15 μl to every assay.
3. Immediately transfer HER-2 enzyme from −80° C. to ice. Allow enzyme to thaw on ice.
4. Take 4.5 μg HER-2 enzyme to the enzyme tube.
as §8, §9
7. Add 4 μl ATP (10 mM) to 496 μl dH2O, take 7.5 μl for every assay. Final Assay Conditions for a 30 μl Reaction
as §10, with “60” for “45”
as §11, §12, §13

T1 sequence (P00533 25-1210): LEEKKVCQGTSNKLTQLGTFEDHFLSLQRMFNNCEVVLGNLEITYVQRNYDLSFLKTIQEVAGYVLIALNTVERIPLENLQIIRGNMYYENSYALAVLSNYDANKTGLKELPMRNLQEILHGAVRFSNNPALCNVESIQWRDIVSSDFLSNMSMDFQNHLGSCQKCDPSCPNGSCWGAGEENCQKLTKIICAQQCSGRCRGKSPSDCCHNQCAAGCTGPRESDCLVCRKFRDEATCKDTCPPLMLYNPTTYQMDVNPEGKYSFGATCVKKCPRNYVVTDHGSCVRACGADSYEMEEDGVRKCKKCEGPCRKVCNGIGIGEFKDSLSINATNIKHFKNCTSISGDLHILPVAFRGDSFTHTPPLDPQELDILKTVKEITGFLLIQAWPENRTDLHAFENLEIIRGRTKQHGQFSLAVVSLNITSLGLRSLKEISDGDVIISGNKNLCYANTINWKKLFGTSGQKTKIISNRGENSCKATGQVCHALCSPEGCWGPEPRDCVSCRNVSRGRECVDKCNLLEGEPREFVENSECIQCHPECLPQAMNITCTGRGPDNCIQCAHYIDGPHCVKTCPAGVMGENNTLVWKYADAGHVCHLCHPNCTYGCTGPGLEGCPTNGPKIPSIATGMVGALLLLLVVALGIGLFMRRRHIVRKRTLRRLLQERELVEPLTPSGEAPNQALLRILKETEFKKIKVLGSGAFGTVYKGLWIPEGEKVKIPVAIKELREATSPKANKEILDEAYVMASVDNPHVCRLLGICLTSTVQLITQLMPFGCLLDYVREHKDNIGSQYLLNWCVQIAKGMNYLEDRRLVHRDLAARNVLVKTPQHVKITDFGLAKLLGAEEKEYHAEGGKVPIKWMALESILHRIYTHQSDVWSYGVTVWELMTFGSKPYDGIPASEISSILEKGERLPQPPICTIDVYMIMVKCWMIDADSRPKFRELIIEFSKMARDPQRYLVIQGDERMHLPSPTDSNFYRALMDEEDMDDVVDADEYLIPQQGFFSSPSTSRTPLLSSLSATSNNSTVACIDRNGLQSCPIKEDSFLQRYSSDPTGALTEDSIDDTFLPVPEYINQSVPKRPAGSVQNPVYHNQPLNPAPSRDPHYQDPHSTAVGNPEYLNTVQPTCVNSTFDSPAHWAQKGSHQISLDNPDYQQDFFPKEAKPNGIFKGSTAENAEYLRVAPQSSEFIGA

CCN(CC)CCN1CCc2[nH]c(/C=C3\C(=O)Nc4ncnc(Nc5ccc(F)c(Cl)c5)c43)c(C)c2C1=O [Example 12, 4-(3-Chlor O-4-fluoro-phenylamino)-5-[5-(2-diethylamino-ethyl)-3-methyl-4-oxo-4,5,6,7-tetrahydro-1H-pyrrolo[3,2-c]pyridine-2-ylmethylene]-5,7-dihydro-pyrrolo[2,3-d]pyrimidin-6-one]
IC50 (EGFR kinase): 0.06 µM | IC50 (HER-2/ErbB2 kinase): 0.09 µM

Cc1c(/C=C2\C(=O)Nc3ncnc(Nc4ccc(F)c(Cl)c4)c32)[nH]c2c1C(=O)N(CCN1CCOCC1)CC2 [Example 24, 4-(3-Chloro-4-fluoro-phenylamino)-5-[3-methyl-5-(2-morpholin-4-yl-ethyl)-4-oxo-4,5,6,7-tetrahydro-1H-pyrrolo[3,2-c]pyridine-2-ylmethylenene]-5,7-dihydro-pyrrolo[2,3-d]pyrimidin-6-one]
IC50 (EGFR kinase): 0.31 µM | IC50 (HER-2/ErbB2 kinase): 0.83 µM

CCN(CC)CCN1CCc2[nH]c(/C=C3\C(=O)Nc4cccc(Br)c43)c(C)c2C1=O [Example 30, 2-(4-Bromo-2-oxo-1,2-dihydro-indol-3-ylidenemethyl)-5-(2-diethylamino-ethyl)-3-methyl-1,5,6,7-tetrahydro-pyrrolo[3,2-c]pyridin-4-one]
IC50 (EGFR kinase): 4.95 µM

CCN(CC)CCN1CCc2[nH]c(/C=C3\C(=O)Nc4cccc(C5CCNCC5)c43)c(C)c2C1=O [Example 31, 5-(2-Diethylamino-ethyl)-3-methyl-2-(2-oxo-4-piperidin-4-yl-1,2-dihydro-indol-3-ylidenemethyl)-1,5,6,7-tetrahydro-pyrrolo[3,2-c]pyridin-4-one]
IC50 (EGFR kinase): 0.21 µM | IC50 (HER-2/ErbB2 kinase): 0.98 µM

CCN(CC)CCN1CCc2[nH]c(/C=C3\C(=O)Nc4cccc(-c5ccc(Cl)cc5F)c43)c(C)c2C1=O [Example 34, 2-[4-(4-Chloro-2-fluoro-phenyl)-2-oxo-1,2-dihydro-indol-3-ylidenemethyl]-5-(2-diethylamino-ethyl)-3-methyl-1,5,6,7-tetrahydro-pyrrolo[3,2-c]pyridin-4-one]
IC50 (EGFR kinase): 0.94 µM

CCN(CC)CCN1CCc2[nH]c(/C=C3\C(=O)Nc4ccc(OC)cc43)c(C)c2C1=O [Example 35, 5-(2-Diethylamino-ethyl)-2-(5-methoxy-2-oxo-1,2-dihydro-indol-3-ylidenemethyl)-3-methyl-1,5,6,7-tetrahydro-pyrrolo[3,2-c]pyridin-4-one]
IC50 (EGFR kinase): 3.32 µM

CCN(CC)CCN1CCc2[nH]c(/C=C3\C(=O)Nc4cccc(-c5cccc(Cl)c5F)c43)c(C)c2C1=O [Example 36, 2-[4-(3-Chloro-2-fluoro-phenyl)-2-oxo-1,2-dihydro-indol-3-ylidenemethyl]-5-(2-diethylamino-ethyl)-3-methyl-1,5,6,7-tetrahydro-pyrrolo[3,2-c]pyridin-4-one]
IC50 (EGFR kinase): 0.18 µM

CCN(CC)CCN1CCc2[nH]c(/C=C3\C(=O)Nc4cccc(CCO)c43)c(C)c2C1=O [Example 37, 5-(2-Diethylamino-ethyl)-2-[4-(2-hydroxy-ethyl)-2-oxo-1,2-dihydro-indol-3-ylidenemethyl]-3-methyl-1,5,6,7-tetrahydro-pyrrolo[3,2-c]pyridin-4-one]
IC50 (EGFR kinase): 2.89 µM

CCN(CC)CCN1CCc2[nH]c(/C=C3\C(=O)Nc4cccc(-c5cccc(F)c5F)c43)c(C)c2C1=O [Example 39, 5-(2-diethylamino-ethyl)-2-[4-(2,3-difluoro-phenyl)-2-oxo-1,2-dihydro-indol-3-ylidenemethyl]-3-methyl-1,5,6,7-tetrahydro-pyrrolo[3,2-c]pyridin-4-one]
IC50 (EGFR kinase): 0.34 µM | IC50 (HER-2/ErbB2 kinase): 0.27 µM

Cc1c(/C=C2\C(=O)Nc3ccc(Br)cc32)[nH]c2c1C(=O)N(CCN1CCCC1)CC2 [Example 40, 2-(5-Bromo-2-oxo-1,2-dihydro-indol-3-ylidenemethyl)-3-methyl-5-(2-pyrrolidin-1-yl-ethyl)-1,5,6,7-tetrahydro-pyrrolo[3,2-c]pyridin-4-one]
IC50 (EGFR kinase): 0.76 µM

Cc1c(/C=C2\C(=O)Nc3cccc(CCO)c32)[nH]c2c1C(=O)N(CCN1CCOCC1)CC2 [Example 42, 2-[4-(2-Hydroxy-ethyl)-2-oxo-1,2-dihydro-indol-3-ylidenemethyl]-3-methyl-5-(2-morpholin-4-yl-ethyl)-1,5,6,7-tetrahydro-pyrrolo[3,2-c]pyridin-4-one]
IC50 (HER-2/ErbB2 kinase): 41.1 µM

Cc1c(/C=C2\C(=O)Nc3ncc(Br)cc32)[nH]c2c1C(=O)N(CCN1CCOCC1)CC2 [Example 50, 2-(5-Bromo-2-oxo-1,2-dihydro-pyrrolo[2,3-b]pyridin-3-ylidenemethyl)-3-methyl-5-(2-morpholin-4-yl-ethyl)-1,5,6,7-tetrahydro-pyrrolo[3,2-c]pyridin-4-one]
IC50 (EGFR kinase): 0.51 µM

Cc1c(/C=C2\C(=O)Nc3cccc(C4CCNCC4)c32)[nH]c2c1C(=O)N(CCN1CCOCC1)CC2 [Example 52, 3-Methyl-5-(2-morpholin-4-yl-ethyl)-2-(2-oxo-4-piperidin-4-yl-1,2-dihydro-indol-3-ylidenemethyl)-1,5,6,7-tetrahydro-pyrrolo[3,2-c]pyridin-4-one]
IC50 (HER-2/ErbB2 kinase): 8.32 µM

Cc1c(/C=C2\C(=O)Nc3cccc(-c4cccc(F)c4F)c32)[nH]c2c1C(=O)N(CCN1CCCC1)CC2 [Example 59, 2-[4-(2,3-Difluoro-phenyl)-2-oxo-1,2-dihydro-indol-3-ylidenemethyl]-3-methyl-5-(2-pyrrolidin-1-yl-ethyl)-1,5,6,7-tetrahydro-pyrrolo[3,2-c]pyridin-4-one]
IC50 (HER-2/ErbB2 kinase): 0.72 µM
